Legend:
Format in all cases: cell-based
[1] = Toxicity studies, microtetrazolium test; conditions: dog, MDCK cells (ATCC CCL-34)
[2] = tested on: Influenza virus A/Puerto Rico/8/34 (H1N1); conditions: ratio of CC50 to IC50, MDCK cell line
Coxsackie virus B3 = assay: Cell protection assay, Coxsackie virus B3 in Vero cells; conditions: for IC50: Enterovirus B, B3, Vero, 72 h; for SI (selectivity index): ratio of CC50 to IC50, Coxsackie virus B3, Vero cell line

SMILES: COC(=O)c1c(-c2ccc(OC)cc2)oc2c(F)c(-n3ccnc3)c(F)c(O)c2c1=O [Compound 8b, Methyl 6,8-difluoro-5-hydroxy-7-(1H-imidazol-1-yl)-2-(4-methoxyphenyl)-4-oxo-4H-chromene-3-carboxylate]
- CC50 at 48 h [1]: 629 ± 41 µM
- SI (selectivity index) [2]: 16

SMILES: COC(=O)c1c(-c2ccc(OC)c(OC)c2)oc2c(F)c(-n3ccnc3)c(F)cc2c1=O [Compound 7а, Methyl 6,8-difluoro-2-(3,4-dimethoxyphenyl)-7-(1H-imidazol-1-yl)-4-oxo-4H-chromene-3-carboxylate]
- CC50 at 48 h [1]: > 679 µM
- IC50 (Coxsackie virus B3): > 226 µM

SMILES: NC(=O)c1ncn([C@@H]2O[C@H](CO)[C@@H](O)[C@H]2O)n1 [ribavirin, reference compound]
- CC50 at 48 h [1]: > 2130 µM
- IC50 (Coxsackie virus B3): 34 ± 4 µM
- SI (selectivity index) (Coxsackie virus B3): >63

SMILES: COC(=O)c1c(-c2ccc(OC)c(OC)c2)oc2c(F)c(-n3ccnc3)c(F)c(F)c2c1=O [Compound 6a, Methyl 5,6,8-trifluoro-2-(3,4-dimethoxyphenyl)-7-(1H-imidazol-1-yl)-4-oxo-4H-chromene-3-carboxylate]
- CC50 at 48 h [1]: 61 ± 4 µM
- SI (selectivity index) [2]: 5
- IC50 (Coxsackie virus B3): > 65 µM

SMILES: COC(=O)c1c(-c2ccc(OC)c(OC)c2)oc2c(F)c(F)c(F)cc2c1=O [Compound 5а, Methyl 6,7,8-trifluoro-2-(3,4-dimethoxyphenyl)-4-oxo-4H-chromene-3-carboxylate]
- CC50 at 48 h [1]: 508 ± 32 µM
- SI (selectivity index) [2]: 16
- IC50 (Coxsackie virus B3): 635 ± 42 µM

SMILES: COc1ccc(-c2cc(=O)c3c(F)c(F)c(-n4ccnc4)c(F)c3o2)cc1OC [Compound 13, 5,6,8-Trifluoro-2-(3,4-dimethoxyphenyl)-7-(1H-imidazol-1-yl)-4H-chromene-4-one]
- CC50 at 48 h [1]: > 746 µM
- IC50 (Coxsackie virus B3): 29 ± 4 µM
- antiviral properties against the Coxsackie virus B3 (in words) (Coxsackie virus B3; Vero cell culture): demonstrated antiviral properties against the Coxsackie virus B3
- SI (selectivity index) (Coxsackie virus B3): 26

SMILES: COC(=O)c1c(-c2ccc(OC)c(OC)c2)oc2c(F)c(F)c(F)c(F)c2c1=O [Compound 4a, Methyl 5,6,7,8-tetrafluoro-2-(3,4-dimethoxyphenyl)-4-oxo-4H-chromene-3-carboxylate]
- CC50 at 48 h [1]: 109 ± 8 µM
- SI (selectivity index) [2]: 2
- IC50 (Coxsackie virus B3): > 61 µM
